According to US20170022171A1, “2,5-DISUBSTITUTED CYCLOPENTANECARBOXYLIC ACIDS AND THEIR USE” (Bayer Pharma Aktiengesellschaft, priority 2014, published 2017):

Legend:
Assay type in all cases: biochemical
[1] = biological target: T1, MMP-9 (Homo sapiens, UniProt P14780); experiment: In vitro MMP-9 inhibition test
T1 construct: purchased R&D Systems 911-MP
Text: (§1) The MMP-mediated amidolytic cleavage of a suitable peptide substrate leads to an increase in fluorescent light here too. The signal intensity of the fluorescent light is directly proportional to the enzyme activity. The active concentration of a test compound at which half the enzyme is inhibited (50% signal intensity of the fluorescent light) is reported as the IC50 value.
(§2) Recombinant MMP-9 (from R&D Systems, 911-MP) is chemically activated in accordance with the manufacturer's instructions using APMA. 1 μl of the test compound to be analysed (as a solution in DMSO, suitable concentrations, for example, 1 nM to 30 μM) is pipetted into 24 μl of activated enzyme (final concentration, for example, 0.1 nM) in reaction buffer (50 mM Tris/HCl pH 7.5, 10 mM CaCl2, 150 mM NaCl, 0.05% Brij®-35) in a white 384-hole microtiter plate (MTP). The enzymatic reaction is started by adding the intramolecularly quenched Mca-Pro-Leu-Gly-Leu-Dpa(Dnp)-Ala-Arg-NH2 substrate (final concentration, for example, 10 μM; R&D Systems, ES-001), so as to result in a total test volume of 50 μl. The course of the MMP-9 reaction is measured by measuring the fluorescence intensity (excitation 320 nm, emission 410 nm) over a suitable period of time (for example over 120 min at a temperature of 32° C.).

[2] = biological target: T2, MMP-10 (Homo sapiens, UniProt P09238); experiment: In vitro MMP-10 inhibition test
T2 construct: purchased R&D Systems 910-MP
T2 sequence (P09238 99-476): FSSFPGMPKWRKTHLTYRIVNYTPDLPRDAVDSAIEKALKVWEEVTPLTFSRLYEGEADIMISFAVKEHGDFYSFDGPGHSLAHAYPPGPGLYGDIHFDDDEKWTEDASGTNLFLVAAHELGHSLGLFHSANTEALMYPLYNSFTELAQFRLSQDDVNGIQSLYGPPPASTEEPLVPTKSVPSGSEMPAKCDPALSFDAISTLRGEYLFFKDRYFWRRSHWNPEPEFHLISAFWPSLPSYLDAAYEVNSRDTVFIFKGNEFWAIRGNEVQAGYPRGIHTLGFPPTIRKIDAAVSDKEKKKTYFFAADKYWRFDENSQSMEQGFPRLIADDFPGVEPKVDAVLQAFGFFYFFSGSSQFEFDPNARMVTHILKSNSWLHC
Text: as §1
as §2, with “MMP-10” for “MMP-9”, “910-MP)” for “911-MP)”, “2” for “0.1”, “Mca-Arg-Pro-Lys-Pro-Val-Glu-Nval-Trp-Arg-Lys(Dnp)-NH2” for “Mca-Pro-Leu-Gly-Leu-Dpa(Dnp)-Ala-Arg-NH2”, “ES-002),” for “ES-001),”

[3] = biological target: T3, MMP-13 (Homo sapiens, UniProt P45452); experiment: In vitro MMP-13 inhibition test
T3 construct: purchased R&D Systems 511-MP
Text: as §1
as §2, with “MMP-13” for “MMP-9”, “511-MP)” for “911-MP)”, “50” for “50 μl.”

[4] = biological target: T4, MMP-2 (Homo sapiens, UniProt P08253); experiment: In vitro MMP-2 inhibition test
T4 construct: purchased R&D Systems 902-MP
T4 sequence (P08253 110-660): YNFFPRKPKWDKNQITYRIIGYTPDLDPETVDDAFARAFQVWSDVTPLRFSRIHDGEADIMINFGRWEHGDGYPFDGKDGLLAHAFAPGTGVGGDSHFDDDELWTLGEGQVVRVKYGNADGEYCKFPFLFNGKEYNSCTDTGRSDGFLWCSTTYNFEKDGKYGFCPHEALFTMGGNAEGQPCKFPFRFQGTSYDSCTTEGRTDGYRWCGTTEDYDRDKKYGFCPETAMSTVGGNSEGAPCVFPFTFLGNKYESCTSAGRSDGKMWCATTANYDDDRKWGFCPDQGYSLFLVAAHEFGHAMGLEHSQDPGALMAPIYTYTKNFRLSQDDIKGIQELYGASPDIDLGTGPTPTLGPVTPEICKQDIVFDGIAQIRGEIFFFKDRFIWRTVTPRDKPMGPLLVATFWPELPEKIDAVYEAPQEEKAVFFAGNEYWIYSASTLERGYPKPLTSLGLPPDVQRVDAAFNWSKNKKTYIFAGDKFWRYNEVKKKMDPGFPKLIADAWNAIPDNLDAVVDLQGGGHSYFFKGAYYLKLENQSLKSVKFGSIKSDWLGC
Text: as §1
as §2, with “MMP-2” for “MMP-9”, “902-MP)” for “911-MP)”, “2” for “0.1”

T1 sequence (P14780 107-707 limits assumed): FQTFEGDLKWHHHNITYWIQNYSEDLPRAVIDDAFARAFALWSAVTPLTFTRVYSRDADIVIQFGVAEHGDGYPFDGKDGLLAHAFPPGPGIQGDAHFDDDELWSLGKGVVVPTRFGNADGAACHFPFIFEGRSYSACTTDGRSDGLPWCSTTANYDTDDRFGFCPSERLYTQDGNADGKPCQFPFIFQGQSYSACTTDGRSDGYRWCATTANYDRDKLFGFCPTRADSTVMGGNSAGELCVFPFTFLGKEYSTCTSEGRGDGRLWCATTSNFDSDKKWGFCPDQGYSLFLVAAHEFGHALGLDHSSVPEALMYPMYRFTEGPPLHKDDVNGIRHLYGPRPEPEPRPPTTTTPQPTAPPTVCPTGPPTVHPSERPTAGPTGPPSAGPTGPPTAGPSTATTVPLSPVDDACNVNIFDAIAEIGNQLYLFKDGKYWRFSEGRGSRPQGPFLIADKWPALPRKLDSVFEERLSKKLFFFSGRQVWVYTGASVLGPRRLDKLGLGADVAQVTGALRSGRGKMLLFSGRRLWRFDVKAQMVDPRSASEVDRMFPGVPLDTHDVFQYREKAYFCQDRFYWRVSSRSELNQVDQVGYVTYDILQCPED

| IC50 [1] [nM] | IC50 [2] [nM] | IC50 [3] [nM] | IC50 [4] [nM] | Molecule |
| --- | --- | --- | --- | --- |
| 380 | 130 | 260 | 850 | Cc1ccc2nnn(C[C@H]3CC[C@@H](C(=O)c4ccc(OCc5cccc(OC(F)(F)F)c5)cc4)[C@@H]3C(=O)O)c(=O)c2c1 (single isomer, unassigned) [Example 110, (+)-(1RS,2SR,5RS)-2-[(6-Methyl-4-oxo-1,2,3-benzotriazin-3(4H)-yl)methyl]-5-(4-{[3-(trifluoromethoxy)benzyl]oxy}benzoyl)cyclopentanecarboxylic acid] |
| 260 | 130 | 620 | 700 | (+)-(1RS,2RS,5SR)-2-{4-[(3,4-Dichlorobenzyl)oxy]benzoyl}-5-{[4-oxo-6-(trifluoromethyl)-1,2,3-benzotriazin-3(4H)-yl]methyl}cyclopentanecarboxylic acid [Example 28] |
| 110 | 50 | 200 | 220 | Cc1ccc2nnn(C[C@H]3CC[C@@H](C(=O)c4ccc(OCc5cccc(Cl)c5)cc4)[C@@H]3C(=O)O)c(=O)c2c1 (single isomer, unassigned) [Example 104, (+)-(1RS,2RS,5SR)-2-{4-[(3-Chlorobenzyl)oxy]benzoyl}-5-[(6-methyl-4-oxo-1,2,3-benzotriazin-3(4H)-yl)methyl]cyclopentanecarboxylic acid] |
| 130 | 110 | 58 | 84 | O=C(O)[C@H]1[C@H](Cn2nnc3ccccc3c2=O)CC[C@@H]1C(=O)c1ccc(OCC2CCCC2)cc1 (racemic) [Example 4, (+/−)-(1RS,2RS,5SR)-2-[4-(Cyclopentylmethoxy)benzoyl]-5-[(4-oxo-1,2,3-benzotriazin-3(4H)-yl)methyl]cyclopentanecarboxylic acid] |
| 4.7 | 33 | 11 | 9.3 | O=C(O)[C@H]1[C@H](Cn2nnc3ccccc3c2=O)CC[C@@H]1C(=O)c1ccc(OCc2ccc(F)cc2)cc1 (racemic) [Example 1, (+/−)-(1RS,2RS,5SR)-2-{4-[(4-Fluorobenzyl)oxy]benzoyl}-5-[(4-oxo-1,2,3-benzotriazin-3(4H)-yl)methyl]cyclopentanecarboxylic acid] |
| 280 | 55 | 410 | 440 | Cc1cccc(COc2ccc(C(=O)[C@@H]3CC[C@H](Cn4nnc5ccc(C)cc5c4=O)[C@H]3C(=O)O)cc2)c1 (single isomer, unassigned) [Example 98, (+)-(1RS,2RS,5SR)-2-{4-[(3-Methylbenzyl)oxy]benzoyl}-5-[(6-methyl-4-oxo-1,2,3-benzotriazin-3(4H)-yl)methyl]cyclopentanecarboxylic acid] |
| 18 | 16 | 88 | 210 | O=C(O)[C@H]1[C@H](Cn2nnc3ccc(C(F)(F)F)cc3c2=O)CC[C@@H]1C(=O)c1ccc(OCc2ccccc2)cc1 (racemic) [Example 11, (+/−)-(1RS,2RS,5SR)-2-[4-(Benzyloxy)benzoyl]-5-{[4-oxo-6-(trifluoromethyl)-1,2,3-benzotriazin-3(4H)-yl]methyl}cyclopentanecarboxylic acid] |
| 3200 | 310 | 2700 | 4000 | O=C(O)[C@H]1[C@H](Cn2nnc3ccc(C(F)(F)F)cc3c2=O)CC[C@@H]1C(=O)c1ccc(SCc2ccc(Cl)c(Cl)c2)cc1 (racemic) [Example 79, (+/−)-(1RS,2RS,5SR)-2-{4-[(3,4-Dichlorobenzyl)sulphanyl]benzoyl}-5-{[4-oxo-6-(trifluoromethyl)-1,2,3-benzotriazin-3(4H)-yl]methyl}cyclopentanecarboxylic acid] |
| 2100 | 41 | 190 | 830 | COC(=O)Nc1cccc(COc2ccc(C(=O)[C@@H]3CC[C@H](Cn4nnc5ccc(C(F)(F)F)cc5c4=O)[C@H]3C(=O)O)cc2)c1 (stereo in doubt) [Example 31, (+)-(1RS,2RS,5SR)-2-[4-({3-[(Methoxycarbonyl)amino]benzyl}oxy)benzoyl]-5-{[4-oxo-6-(trifluoromethyl)-1,2,3-benzotriazin-3(4H)-yl]methyl}cyclopentanecarboxylic acid] |
| 51 | 20 | 110 | 97 | O=C(O)[C@@H]1[C@@H](Cn2nnc3ccc(C(F)(F)F)cc3c2=O)CC[C@H]1C(=O)c1ccc(OCC2CCCCC2)cc1 (single isomer, unassigned) [Example 41, (+)-(1RS,2RS,5SR)-2-[4-(Cyclohexylmethoxy)benzoyl]-5-{[4-oxo-6-(trifluoromethyl)-1,2,3-benzotriazin-3(4H)-yl]methyl}cyclopentanecarboxylic acid] |
| 4.4 | 22 | 33 | 80 | O=C(O)[C@@H]1[C@@H](Cn2nnc3ccc(C(F)(F)F)cc3c2=O)CC[C@H]1C(=O)c1ccc(OCc2ccc(F)cc2)cc1 (single isomer, unassigned) [Example 13, (+)-(1RS,2RS,5SR)-2-{4-[(4-Fluorobenzyl)oxy]benzoyl}-5-{[4-oxo-6-(trifluoromethyl)-1,2,3-benzotriazin-3(4H)-yl]methyl}cyclopentanecarboxylic acid] |
| 94 | 81 | 230 | 170 | CCCCCOc1ccc(C(=O)[C@H]2CC[C@@H](Cn3nnc4ccc(C)cc4c3=O)[C@@H]2C(=O)O)cc1 (racemic) [Example 123, (+/−)-(1RS,2SR,5RS)-2-[(6-Methyl-4-oxo-1,2,3-benzotriazin-3(4H)-yl)methyl]-5-[4-(pentyloxy)benzoyl]cyclopentanecarboxylic acid] |
